Reference: publication PMC8673672, “Synthesis and evaluation of radiogallium-labeled long-chain fatty acid derivatives as myocardial metabolic imaging agents” (PLoS ONE, 2021)

Assays:
[1] = parameters: method as in PMID 31869735; conditions: Ga complex; cited from earlier work
[2] = Biodistribution study in normal mice; assay type: in vivo; conditions: ddY mice, i.v.
Description: The animal experimental protocols used were approved by the Committee on Animal Experimentation of Kanazawa University (AP-204165). All experiments with animals were conducted in strict accordance with the Guidelines for the Care and Use of Laboratory Animals of Kanazawa University. Mice were housed together in individually ventilated cages with three mice per cage. The animals were housed at 23°C with a 12 h light/dark schedule with free access to a standardized mouse diet and provided drinking water ad libitum water. Autoclaved wood chips were applied as bedding material. The behavior of the mice during the experimental period was normal. Seventy-five ddY mice (male; 6-week-old; 29–33 g) were purchased from Japan SLC Inc., Hamamatsu, Japan. The mice were randomly divided into five groups (n = 15 mice per group) with five different time points for each group (n = 3 mice per time point).
Radiotracers, [^67Ga]5, [^67Ga]6, [^67Ga]7, or [^67Ga]8, in saline containing 5% ethanol and 0.1% tween-80, or [^123I]BMIPP (74 kBq/100 μL, respectively) was intravenously injected into mice via the tail. The ddY mice were sacrificed by decapitation at 0.5, 2, 5, 20, and 60 min. Tissues of interest were removed and weighed. The radioactivity of the tissues was determined using an auto well gamma counter. The data were expressed as percent injected dose per gram tissue (%ID/g).

For `O=C([O-])CN1CCN(CC(=O)[O-])CCN(CC(=O)O)CCN(CC(=O)[O-])CC1.[Ga+3]` [Ga-DOTA], the “Stability constant (log K)” value [1] is given as 21.3.

With `CC(CCCCCCCCCCCCc1ccc([123I])cc1)CC(=O)O` (stereo not drawn) [[^123I]BMIPP, β-methyl [^123I]iodophenyl-pentadecanoic acid] the Blood radioactivity ([2]; 0.5 min after injection) was 20.30 (1.55) %ID/g, the Bone radioactivity ([2]; 0.5 min after injection) was 2.63 (0.33) %ID/g and the Brain radioactivity ([2]; 0.5 min after injection) was 0.51 (0.11) %ID/g. The Kidney radioactivity ([2]; 0.5 min after injection) was 5.21 (0.42) %ID/g, the Large intestine radioactivity ([2]; 0.5 min after injection) was 0.42 (0.07) %ID/g and the Liver radioactivity ([2]; 0.5 min after injection) was 12.44 (2.40) %ID/g. The Lung radioactivity ([2]; 0.5 min after injection) was 24.09 (4.19) %ID/g, the Muscle radioactivity ([2]; 0.5 min after injection) was 2.85 (0.69) %ID/g and the Pancreas radioactivity ([2]; 0.5 min after injection) was 2.43 (0.68) %ID/g. The Small intestine radioactivity ([2]; 0.5 min after injection) was 0.91 (0.15) %ID/g, the Spleen radioactivity ([2]; 0.5 min after injection) was 4.91 (1.27) %ID/g and the Stomach radioactivity ([2]; 0.5 min after injection) was 0.60 (0.11) %ID/organ. For the same molecule, the Heart uptake ([2]; 0.5 min after injection (initial myocardial uptake)) was 21.36 (2.73) %ID/g, the Blood radioactivity ([2]; 2 min after injection) was 6.01 (0.74) %ID/g and the Bone radioactivity ([2]; 2 min after injection) was 1.97 (0.03) %ID/g. For the same molecule, the Brain radioactivity ([2]; 2 min after injection) was 0.22 (0.03) %ID/g, the Heart uptake ([2]; 2 min after injection) was 27.60 (3.15) %ID/g and the Kidney radioactivity ([2]; 2 min after injection) was 5.27 (0.61) %ID/g. The Large intestine radioactivity ([2]; 2 min after injection) was 0.68 (0.14) %ID/g, the Liver radioactivity ([2]; 2 min after injection) was 21.35 (0.89) %ID/g and the Lung radioactivity ([2]; 2 min after injection) was 15.88 (1.94) %ID/g. The Muscle radioactivity ([2]; 2 min after injection) was 3.24 (0.49) %ID/g, the Pancreas radioactivity ([2]; 2 min after injection) was 6.11 (1.90) %ID/g and the Small intestine radioactivity ([2]; 2 min after injection) was 1.33 (0.23) %ID/g. The Spleen radioactivity ([2]; 2 min after injection) was 3.76 (1.18) %ID/g, the Stomach radioactivity ([2]; 2 min after injection) was 0.70 (0.17) %ID/organ and the Blood radioactivity ([2]; 5 min after injection) was 6.75 (1.07) %ID/g. For the same molecule, the Bone radioactivity ([2]; 5 min after injection) was 2.29 (0.27) %ID/g, the Brain radioactivity ([2]; 5 min after injection) was 0.25 (0.03) %ID/g and the Heart uptake ([2]; 5 min after injection) was 28.03 (5.37) %ID/g. The Kidney radioactivity ([2]; 5 min after injection) was 5.93 (1.23) %ID/g, the Large intestine radioactivity ([2]; 5 min after injection) was 0.66 (0.11) %ID/g and the Liver radioactivity ([2]; 5 min after injection) was 16.33 (4.41) %ID/g. The Lung radioactivity ([2]; 5 min after injection) was 16.87 (3.08) %ID/g, the Muscle radioactivity ([2]; 5 min after injection) was 3.42 (1.06) %ID/g and the Pancreas radioactivity ([2]; 5 min after injection) was 5.66 (4.30) %ID/g. The Small intestine radioactivity ([2]; 5 min after injection) was 1.39 (0.27) %ID/g, the Spleen radioactivity ([2]; 5 min after injection) was 3.09 (1.26) %ID/g and the Stomach radioactivity ([2]; 5 min after injection) was 0.95 (0.28) %ID/organ. The Blood radioactivity ([2]; 20 min after injection) was 10.84 (0.20) %ID/g, the Bone radioactivity ([2]; 20 min after injection) was 2.66 (0.22) %ID/g and the Brain radioactivity ([2]; 20 min after injection) was 0.43 (0.07) %ID/g. For the same molecule, the Heart uptake ([2]; 20 min after injection) was 23.41 (3.39) %ID/g, the Kidney radioactivity ([2]; 20 min after injection) was 8.03 (0.09) %ID/g and the Large intestine radioactivity ([2]; 20 min after injection) was 1.20 (0.04) %ID/g. For the same molecule, the Liver radioactivity ([2]; 20 min after injection) was 6.54 (0.43) %ID/g, the Lung radioactivity ([2]; 20 min after injection) was 16.21 (1.50) %ID/g and the Muscle radioactivity ([2]; 20 min after injection) was 3.51 (0.21) %ID/g. For the same molecule, the Pancreas radioactivity ([2]; 20 min after injection) was 9.80 (3.25) %ID/g, the Small intestine radioactivity ([2]; 20 min after injection) was 1.97 (0.11) %ID/g and the Spleen radioactivity ([2]; 20 min after injection) was 1.73 (0.55) %ID/g. For the same molecule, the Stomach radioactivity ([2]; 20 min after injection) was 1.06 (0.05) %ID/organ, the Blood radioactivity ([2]; 60 min after injection) was 10.38 (2.03) %ID/g and the Bone radioactivity ([2]; 60 min after injection) was 2.42 (0.33) %ID/g. For the same molecule, the Brain radioactivity ([2]; 60 min after injection) was 0.39 (0.04) %ID/g, the Heart uptake ([2]; 60 min after injection) was 20.92 (3.67) %ID/g and the Kidney radioactivity ([2]; 60 min after injection) was 6.24 (0.62) %ID/g. For the same molecule, the Large intestine radioactivity ([2]; 60 min after injection) was 1.20 (0.15) %ID/g, the Liver radioactivity ([2]; 60 min after injection) was 4.34 (0.61) %ID/g and the Lung radioactivity ([2]; 60 min after injection) was 13.11 (3.05) %ID/g. For the same molecule, the Muscle radioactivity ([2]; 60 min after injection) was 3.87 (0.80) %ID/g, the Pancreas radioactivity ([2]; 60 min after injection) was 8.04 (3.89) %ID/g and the Small intestine radioactivity ([2]; 60 min after injection) was 1.88 (0.29) %ID/g. For the same molecule, the Spleen radioactivity ([2]; 60 min after injection) was 1.68 (0.81) %ID/g and the Stomach radioactivity ([2]; 60 min after injection) was 1.06 (0.17) %ID/organ.
